The values below come from publication PMC5291098, “Molecular mutagenesis of ppGpp: turning a RelA activator into an inhibitor” (Scientific Reports, 2017).

“Also recorded” adds a separate entry of the source.

Experiment [1] concerns the target E. faecalis SAS RelQ (RelQEf) (Enterococcus faecalis, UniProt Q830U9). Put plainly: Inhibition of E. faecalis SAS RelQ ppGpp synthesis. It is filed as biochemical. To be noted: for Effect on RelQEf activity (in words): concentrations up to 1 mM. The source says:
In E. coli, ppGpp is synthesized by the multi-domain RSHs RelA and SpoT, however, numerous single-domain RSHs – Small Alarmone Synthetases (SAS) – are widely distributed across bacterial taxa[3]. […] Therefore we tested the effects of DR-4250, DR-M014 and DR-5163 on RelQEf activity (Supplementary Figure 2).
Detailed description of experimental procedures can be found in Supplementary Text. Biochemical assays utilize in vitro translation[58] and stringent response[15] systems from E. coli purified components. Experiments were performed in HEPES:Polymix[58] buffer with either 5 (for enzymatically assembled initiation complexes) or 15 mM (for vacant 70 S, as well as non-enzymatically assembled programmed ribosomes) Mg^2+. Expression and purification of E. faecalis RelQ was performed as per Gaca (2015) and colleagues. GTPase and ppGpp synthesis were followed using TLC separation and radiochemical detection of ^3H-labelled nucleotides. Multiple round in vitro transcription assays were performed as per Bernardo et al.[49] with minor modifications. Inhibition efficiency (IC50) was calculated using 4-parameter logistic model (Hill equation) as per Sebaugh[60].
RelQ activity0.4 RelQ activity0.4 RelQ activity0.4
Supplementary Figure 2 | Inhibition of E. faecalis SAS RelQ by DR-4250, DR-
M014 and DR-5163 is inefficient. The reaction mixture contains 0.25 µM RelQEf,
300 µM [3H] GDP, 0.5 mg/ml BSA, 100 µM ppGpp, 1 mM ATP in Hepes:Polymix at […]

The next experiment has as its target T1, E. coli RelA (Escherichia coli, UniProt P0AG20).
T1 construct: made in house
In words: Inhibition of RelA activated by programmed 'starved' ribosomal complexes containing deacylated A-site tRNAPhe. The format is biochemical. To be noted: 30 nM RelA, 0.5 μM 70S, 2 μM tRNAPhe, 2 μM tRNAiMet, 2 μM mRNA(MF), 100 μM ppGpp, 0.3 mM [3H]GDP, 1 mM ATP, 5 mM Mg2+; read-out: IC50, 70S(MF:tPhe). On the procedure: Screening was performed in a cost-efficient way using RelA activated by the presence of vacant 70S ribosomes and 100 μM ppGpp. However, to become fully active, RelA requires the presence of ‘starved’ ribosomal complexes containing deacylated A-site tRNA[17]. We therefore prepared ‘starved’ complexes using model mRNA coding for fMetPhe (MF) dipeptide and purified deacylated tRNAs tRNA^Phe and tRNA^fMeti[42] to test the efficiency of DR-4250 and DR-M014 in this more physiologically relevant system (Fig. 4a,b).
Figure 4 Functional studies of DR-M014 and DR-4250 with programmed ribosomal complexes. (a,b) Inhibition of RelA activated by starved ribosomal complexes containing deacylated A-site tRNA^Phe. […]
Both EF-G GTPase reaction and ppGpp synthesis by RelA were followed by TLC analysis followed by scintillation counting according to Mechold and colleagues, with modifications1. […] TLC was run in buffer, plates dried, cut into sections guided by UV-shadowing and 3H radioactivity was quantified by scintillation counting in Optisafe-3 (Fisher) scintillation cocktail on Perkin Elmer Tricarb 2810TR counter. Conversion of substrate to product was quantified as described in Shyp et al. (2012)2. […]
Screening: all experiments were performed in HEPES:Polymix, Mg2+ of 5 mM, 37 °C. […] Inhibition efficiency (IC50) was calculated using 4-parameter logistic model (Hill equation) as per Sebaugh (2011)3. […]

Chain of E. faecalis SAS RelQ (RelQEf) (Q830U9 entry or part of it): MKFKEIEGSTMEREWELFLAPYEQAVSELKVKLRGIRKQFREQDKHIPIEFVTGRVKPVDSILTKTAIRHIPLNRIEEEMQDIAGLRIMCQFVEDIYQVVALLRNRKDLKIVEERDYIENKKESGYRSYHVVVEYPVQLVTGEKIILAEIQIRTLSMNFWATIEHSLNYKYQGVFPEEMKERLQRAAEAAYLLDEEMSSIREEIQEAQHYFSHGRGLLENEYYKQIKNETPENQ
T1 sequence (P0AG20 whole entry): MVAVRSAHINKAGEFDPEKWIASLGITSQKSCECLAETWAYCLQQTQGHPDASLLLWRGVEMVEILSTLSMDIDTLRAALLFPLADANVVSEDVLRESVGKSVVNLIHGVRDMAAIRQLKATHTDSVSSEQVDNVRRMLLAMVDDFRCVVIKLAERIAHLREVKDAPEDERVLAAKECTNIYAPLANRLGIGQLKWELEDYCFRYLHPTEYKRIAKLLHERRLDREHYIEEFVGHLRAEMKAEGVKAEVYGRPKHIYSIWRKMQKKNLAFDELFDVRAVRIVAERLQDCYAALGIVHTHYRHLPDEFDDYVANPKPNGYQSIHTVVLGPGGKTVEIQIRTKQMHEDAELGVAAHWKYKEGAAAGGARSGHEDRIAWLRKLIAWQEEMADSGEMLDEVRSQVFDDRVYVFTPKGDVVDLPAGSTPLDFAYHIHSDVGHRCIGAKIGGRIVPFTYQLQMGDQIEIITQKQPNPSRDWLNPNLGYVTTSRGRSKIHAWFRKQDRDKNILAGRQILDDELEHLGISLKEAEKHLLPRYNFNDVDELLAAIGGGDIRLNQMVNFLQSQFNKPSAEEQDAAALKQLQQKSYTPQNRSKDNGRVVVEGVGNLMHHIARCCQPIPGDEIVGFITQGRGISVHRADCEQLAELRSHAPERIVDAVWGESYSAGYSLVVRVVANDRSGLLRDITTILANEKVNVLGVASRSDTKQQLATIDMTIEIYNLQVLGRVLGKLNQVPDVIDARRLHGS

Turning to `Nc1nc2c(ncn2C2OC(COP(=O)(O)OCP(=O)(O)O)C(OP(=O)(O)OCP(=O)(O)O)C2O)c(=O)[nH]1` (centres unmarked) [DR-4250, Guanosine 3’,5’-di(phosphonomethoxyphosphate)], the IC50 was determined as 235 ± 19 µM in experiment [1] (0.25 µM RelQEf, 300 µM [3H]GDP, 100 µM ppGpp, 1 mM ATP, 37°C) and 41 ± 7 µM on E. coli RelA. The “Effect on RelQEf activity (in words)” value in experiment [1] was “inefficient”.

Take `Nc1nc2c(ncn2C2CCN(C(=O)P(=O)(O)O)CC2)c(=O)[nH]1` [DR-M014]: the “Effect on RelQEf activity (in words)” value in experiment [1] is “inefficient; also recorded: almost inactive”. The IC50 on E. coli RelA amounted to 155 ± 14 µM.
